Measured values from ChEMBL document CHEMBL3272311, “Syntheses and pharmacological activity of substituted imidazolidinethiones and thiomidazolines” (J Med Chem, 1977).
Active and inactive are the calls of the source. No cut-off for these calls is given here.

Tests used:
Mus musculus [1] = assay: Safety index, ratio of LD50 for toxicity in Swiss-Webster mouse to ED50 for CNS depressant activity in ip dosed Swiss-Webster by rotarod assay; assay type: functional
[2] = Toxicity in ip dosed Swiss-Webster mouse after 24 hrs; assay type: organism-based; details: in vivo
Mus musculus [3] = assay: Anticonvulsant activity in Swiss-Webster mouse assessed as protection against strychnine-induced seizure at 10 to 20 mg/kg, ip; assay type: functional, organism-based
Mus musculus [4] = assay: CNS depressant activity in ip dosed Swiss-Webster mouse assessed as spontaneous motor activity by rotarod assay; assay type: functional
Mus musculus [5] = assay: Anticonvulsant activity in Swiss-Webster mouse assessed as protection against pentylenetetrazole-induced seizure at 10 to 20 mg/kg, ip; assay type: functional, organism-based
Mus musculus [6] = assay: CNS depressant activity in Swiss-Webster mouse assessed as forced motor activity at 50 to 200 mg/kg, ip by rotarod assay relative to control; assay type: functional; details: dose mg/kg 50-200; route intraperitoneal
Mus musculus [7] = assay: Anticonvulsant activity against pentylenetetrazole-induced seizure in Swiss-Webster mouse assessed as prolongation of time for onset of convulsion at 50 to 200 mg/kg, ip relative to control; assay type: functional
Mus musculus [8] = assay: Anticonvulsant activity against maximal electroshock-induced seizure in Swiss-Webster mouse assessed as prolongation of time for onset of convulsion at 50 to 200 mg/kg, ip relative to control; assay type: functional; details: dose mg/kg 50-200; route intraperitoneal
Mus musculus [9] = assay: CNS depressant activity in Swiss-Webster mouse assessed as spontaneous motor activity at 50 to 200 mg/kg, ip by rotarod assay relative to control; assay type: functional; details: dose mg/kg 50-200; route intraperitoneal
Rattus norvegicus [10] = assay: Toxicity in Wistar rat assessed as decrease in respiration at 50 to 200 mg/kg, ip; assay type: organism-based; set-up: dose 50-200 mg/kg, route intraperitoneal; scale not given: the % may be the effect or the level left; details: in vivo
Rattus norvegicus [11] = assay: Toxicity in Wistar rat assessed as decrease in body temperature at 50 to 200 mg/kg, ip; assay type: organism-based; set-up: dose 50-200 mg/kg, route intraperitoneal; details: in vivo
Mus musculus [12] = assay: Anticonvulsant activity against strychnine-induced seizure in Swiss-Webster mouse assessed as prolongation of time for onset of convulsion at 50 to 200 mg/kg, ip relative to control; assay type: functional; details: dose mg/kg 50-200; route intraperitoneal
Rattus norvegicus [13] = assay: Toxicity in Wistar rat assessed as marked ptosis at 50 to 200 mg/kg, ip; assay type: organism-based; set-up: dose 50-200 mg/kg, route intraperitoneal; details: in vivo
Rattus norvegicus [14] = assay: Toxicity in Wistar rat assessed as decrease in heart rate at 50 to 200 mg/kg, ip; assay type: organism-based; set-up: dose 50-200 mg/kg, route intraperitoneal; details: in vivo
Rattus norvegicus [15] = assay: Toxicity in Wistar rat assessed as decrease in heart rate at 5 to 15 mg/kg, ip; assay type: organism-based; set-up: dose 5-15 mg/kg, route intraperitoneal; details: in vivo
Rattus norvegicus [16] = assay: Toxicity in Wistar rat assessed as decrease in respiration at 5 to 15 mg/kg, ip; assay type: organism-based; set-up: dose 5-15 mg/kg, route intraperitoneal; scale not given: the % may be the effect or the level left; details: in vivo
Rattus norvegicus [17] = assay: Toxicity in Wistar rat assessed as marked ptosis at 5 to 15 mg/kg, ip; assay type: organism-based; set-up: dose 5-15 mg/kg, route intraperitoneal; details: in vivo
Rattus norvegicus [18] = assay: Toxicity in Wistar rat assessed as decrease in body temperature at 5 to 15 mg/kg, ip; assay type: organism-based; set-up: dose 5-15 mg/kg, route intraperitoneal; details: in vivo

Compound	Ratio LD50/ED50 (Mus musculus [1])	LD50 at 24 h [2]	ED50 (Mus musculus [4])	Activity (Mus musculus [8])	Activity (Mus musculus [7])	also measured
CC(=O)N1CCN(C)C1=S	0.5	40 mg/kg				
O=C1NC(=O)C(c2ccccc2)(c2ccccc2)N1 [PHENYTOIN]			10.7 mg/kg			Activity (Mus musculus [3]): inactive; Activity (Mus musculus [5]): inactive
COC(=O)N1CCN=C1SCC(=O)c1ccccc1		> 1000 mg/kg		75%		inhibition (INH) (Mus musculus [6]): 40%; Activity (Mus musculus [7]; dose mg/kg 50-200, route intraperitoneal): 134%; inhibition (INH) (Mus musculus [9]): 85%
CSC1=NCCN1C(C)=O		> 1000 mg/kg	150 mg/kg	90%	Active	Activity (Rattus norvegicus [10]): 50%; T (Rattus norvegicus [11]): 3 °C; Activity (Mus musculus [12]): 48%; Activity (Rattus norvegicus [13]): Toxic; Activity (Rattus norvegicus [14]): 25 bpm
COC(=O)N1CCN(C)C1=S		25 mg/kg	18 mg/kg			Activity (Rattus norvegicus [15]): 8 bpm; Activity (Rattus norvegicus [16]): 20%; Activity (Rattus norvegicus [17]): Non-toxic; T (Rattus norvegicus [18]): 1 °C
COC(=O)N1CCN=C1SC	16.1	> 1000 mg/kg		106%	Active	
